Patent US20040235920A1, “Novel use of substituted aminomethyl chromans for the treatment of movement disorders and of adverse effects induced by drugs administered to treat extrapyramidal movement disorders” (priority 2001, published 2004)

What was measured:
[1] = test system: reserpinized rat or mouse; test: Reserpinized rat or mouse, akinesia in activity meters; type: in vivo; settings: 24 h after reserpine
Description: A typical animal model is the reserpinized rat or mouse (e.g. M. S. Starr and B. S. Starr, J. Neural Transm.—Park. Dis. Dement. Sect., 1994; 7: 133-142; M. Gossel et al., J. Neural Transm.—Park. Dis. Dement. Sect., 1995; 10: 27-39; N. R. Hughes et al., Mov. Disord., 1998; 13: 228-233). Reserpine is a potent depleter of monoamines and produces nearly complete akinesia in both species. Prominent 24 h after application, the distance travelled and the time active is nearly zero as measured in conventional activity meters.

[2] = test system: oxotremorine-induced tremor; test: Oxotremorine-induced tremor (rating scale); type: in vivo
Description: A typical animal model for drug-induced tremors is the oxotremorine-induced tremor (e.g. H. Hallberg and O. Almgren, Acta Physiol. Scand., 1987; 129: 407-13; J. G. Clement and W. R. Dyck, J. Pharmacol. Meth., 1989; 22: 25-36). Oxotremorine induces tremor which is measured by a rating scale. (−)-(R)-2-{4-[[3,4-dihydro-2H-benzopyran-2-yl)-methyl]amino]butyl}-1,2-benzoisothiazol-3-(2H)-on-1,1-dioxide or one of its pharmaceutically acceptable salt inhibit oxotremorine-induced tremors.

[3] = test system: neuroleptics sensitized monkey; test: Neuroleptics sensitized monkey, haloperidol challenge; type: in vivo; settings: after haloperidol challenge, scoring system
Text: Another typical animal model is the neuroleptics sensitized monkey according to D. E. Casey, Psychopharmacology, 1996; 124: 134-140. Monkeys treated repeatedly with conventional neuroleptics are highly sensitive to a subsequent challenge dose of neuroleptic drugs. When challenged, the monkeys immediately show extrapyramidal motor side effects such as dystonia, dyskinesias, akathisia, and bradykinesia which are rated by a scoring system. The conventional neuroleptic drug haloperidol is given as a challenge.

[4] = test system: rats challenged with haloperidol; test: Neuroleptics-induced muscle rigidity in rats (haloperidol); type: in vivo, rat; settings: resistance to passive flexion and extension of the hind limb
Text: A typical animal model is neuroleptics-induced muscle rigidity in rats according to S. Wolfarth et al., Arch. Pharmacol. 1992; 345: 209-212. Rats are challenged with the conventional neuroleptic drug haloperidol which enhances muscle tone. Muscle tone is electromechanically measured as the resistence to passive flexion and extension of the hind limb. (−)-(R)-2-{4-[[3,4-dihydro-2H-benzopyran-2-yl)-methyl]amino]butyl}-1,2-benzoisothiazol-3-(2H)-on-1,1-dioxide or a pharmaceutically acceptable salt thereof decreased the muscle tone enhanced by haloperidol.

With O=C1c2ccccc2S(=O)(=O)N1CCCCNC[C@H]1CCc2ccccc2O1 [(−)-(R)-2-{4-[[3,4-dihydro-2H-benzopyran-2-yl)-methyl]amino]butyl}-1,2-benzoisothiazol-3-(2H)-on-1,1-dioxide] the akinesia [1] was “dose-dependently reduced akinesia”, the “distance travelled and time active” value ([1]; activity meters) was “restored distance travelled and time active to about the level of normal animals” and the oxotremorine-induced tremors [2] was “inhibit”. For the same compound, the “extrapyramidal motor side effects (dystonia, dyskinesias, akathisia, bradykinesia)” value [3] was “dose-dependently reduce” and the “muscle tone enhanced by haloperidol” value [4] was “decreased”.
